These results are taken from publication PMC7534389, “Thiazolidin-2-cyanamides derivatives as novel potent Escherichia coli β-glucuronidase inhibitors and their structure–inhibitory activity relationships” (Journal of Enzyme Inhibition and Medicinal Chemistry, 2020).

Data set [1] concerns the target T1, Escherichia coli β-glucuronidase (EcGUS) (Escherichia coli, UniProt P05804).
T1 construct: inferred from the pET28a vector and Ni-NTA purification; made in house; host or cells: E. coli BL21 (DE3)
The data set is described as follows: Inhibition kinetic analysis (Lineweaver–Burk plots, Ki) against EcGUS. The data set is classed as biochemical. To be noted: for Ki: PNPG 0.2-1.0 mM, nonlinear regression; for Inhibition type: from intersection point in Lineweaver–Burk plots. The procedure: To further characterise the inhibition behaviour of discovered inhibitors, multiple concentrations of compounds (0.5–12 µM) or DSL (50–100 µM) and PNPG (0.2, 0.3, 0.5, and 1.0 mM) were applied to determine the corresponding reaction rates. The inhibition type was evaluated through determining the intersection point in Lineweaver–Burk plots, and the Ki values were calculated by nonlinear regression of different inhibition types using the GraphPad Prism 6.0 (GraphPad Software, La Jolla, CA).
(§1) All experiments were carried out in triplicate and repeated at least two times. All data were expressed as mean ± standard deviation (SD). The IC50 values were defined as the concentration of inhibitor that is required for 50% inhibition and evaluated by nonlinear regression using GraphPad Prism 6.0 software (GraphPad Software, La Jolla, CA).

The target of data set [2] is T1, Escherichia coli β-glucuronidase (EcGUS). The data set is described as follows: EcGUS-mediated PNPG hydrolysis inhibition assay (screening at 10 µM and IC50). It is filed as biochemical. The procedure: EcGUS was prepared according to our previous report. The recombinant strain were incubated in 200 mL of LB broth (Tryptone, 10 g/L; yeast extract, 5 g/L; NaCl, 10 g/L; pH 7.0) containing 1% kanamycin at 220 rpm and 37 °C until OD600 reached 0.5–0.6. Afterward, IPTG (final concentration, 0.5 mM) was added and the culture was incubated at 220 rpm and 16 °C for 16 h to induce the expression of β-glucuronidase. The cells were collected by centrifugation and suspended in PBS buffer (pH 7.4), and then applied to extract the enzyme by sonication. Finally, pure EcGUS was obtained from the cell-free extracts through a Ni-NTA column (EMD Millipore Corp., MA, USA). Protein concentration was determined using the BCA Protein Assay Kit (Beyotime, Shanghai, China) according to the manufacturer’s instruction, and its purity was determined by SDS-PAGE.
Thirteen thiazolidin-2-cyanamide derivatives were subjected to screening for potent EcGUS inhibitor. The inhibitory effects of these compounds were determined by measuring the PNP formation generated from PNPG by EcGUS. Briefly, the assays were conducted in 96-well flat-bottomed tissue culture plates (Nunc, Denmark) with a total volume of 100 µL which consisted of 10 µL EcGUS (final concentration, 2 µg/mL), 70 µL PBS buffer (pH 7.4), 10 µL test compound or DSL (final concentration, 10 µM) and 10 µL PNPG (final concentration, 250 µM). DSL was used as a positive control, and 1%DMSO was used as blank control. All reactions were performed in triplicate and the produced PNP was monitored by measuring absorbance at 405 nm in a plate reader (SpectraMax Plus384, Molecular Devices, CA, USA) after incubating at 37 °C for 30 min. The PNP concentration was determined from a standard curve (0, 10, 20, 40, 60, 80, 100, 120 µM PNP) in PBS buffer (pH 7.4). Relative activity was defined as a percent of PNP formation in the presence of test compound within 30 min compared with the blank control group.
IC50 values of the 13 thiazolidin-2-cyanamide derivatives against EcGUS were investigated using similar assays as described in Section 2.4. The reaction conditions are as follows: 10 µL pure enzyme (final concentration, 2 µg/mL), 70 µL PBS buffer (pH 7.4), 10 µL test compound or DSL (final concentration, 0.001–5000 µM) and 10 µL PNPG (final concentration, 250 µM) incubating at 37 °C for 30 min. The IC50 values were calculated by plotting the concentration–response curve using GraphPad Prism 6.0 (GraphPad Software, La Jolla, CA).
as §1

Another data set deals with EcGUS. To be noted: cited from earlier work.
The mark [3] stands for this setting: 10 µM compound, PNPG 250 µM, EcGUS 2 µg/mL, PBS pH 7.4, 37 °C, 30 min, read-out: Inhibition rate at 10 μM.
The mark [4] stands for this setting: PNPG 250 µM, EcGUS 2 µg/mL, PBS pH 7.4, 37 °C, 30 min.
The mark [5] stands for this setting: pH 7.4, read-out: Inhibition rate at 10 μM.

Where “and” joins values, the source holds several entries; their conditions need not be identical. Equal entries are not always repeated. Where two headings read alike, the source gives them in different places.

T1 sequence (P05804 whole entry): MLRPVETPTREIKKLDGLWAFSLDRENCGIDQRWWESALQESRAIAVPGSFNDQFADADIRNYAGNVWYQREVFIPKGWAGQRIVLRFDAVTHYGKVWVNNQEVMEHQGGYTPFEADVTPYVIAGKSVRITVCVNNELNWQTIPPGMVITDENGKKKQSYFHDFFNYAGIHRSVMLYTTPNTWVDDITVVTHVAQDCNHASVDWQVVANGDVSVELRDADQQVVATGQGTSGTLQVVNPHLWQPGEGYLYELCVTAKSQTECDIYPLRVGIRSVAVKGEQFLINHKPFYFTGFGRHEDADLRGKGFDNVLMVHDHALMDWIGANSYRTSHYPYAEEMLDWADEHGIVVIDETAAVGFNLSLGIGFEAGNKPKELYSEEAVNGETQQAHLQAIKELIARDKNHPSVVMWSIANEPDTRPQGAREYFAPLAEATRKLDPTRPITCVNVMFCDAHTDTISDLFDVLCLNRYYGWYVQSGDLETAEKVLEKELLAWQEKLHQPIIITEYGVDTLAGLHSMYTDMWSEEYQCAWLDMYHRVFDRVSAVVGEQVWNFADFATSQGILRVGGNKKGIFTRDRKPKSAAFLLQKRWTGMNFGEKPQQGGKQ

Regarding `N#C/N=C1\SCCN1C(=O)c1ccc(-c2ccccc2Cl)o1` [Compound 1], the melting point – broadly, the temperature, or range, at which the solid turns liquid – is 101 to 102 °C. In data set [1], the Ki – broadly, a dissociation constant, usually derived from enzyme kinetics or from competition with a known ligand – was < 3.5 µM and 3.5 µM; the Inhibition type result is recorded as “competitive EcGUS inhibitors”. Further, the inhibition (commonly the change of the read-out against control, counted positive when it falls) at 10 µM in data set [2] (setting [3]) stood at 77.2 ± 0.6%. Also, in data set [2] (setting [4]), half-maximal inhibition (IC50) required 5.7 ± 0.6 µM.
`N#C/N=C1\SCCN1C(=O)c1ccc(-c2cccc(Cl)c2)o1` [Compound 2] registered a melting point of 166 to 167 °C. Besides, in data set [1], the inhibition constant (Ki) is < 3.5 µM and 0.7 µM; the Inhibition type result is listed as “competitive EcGUS inhibitors”. Moreover, the inhibition at 10 µM in data set [2] (setting [3]) amounted to 95.2 ± 0.3%. Moreover, the IC50 – broadly, the concentration at which inhibition is half-maximal – in data set [2] (setting [4]) worked out at 1.2 ± 0.2 µM.
For the compound `N#C/N=C1\SCCN1C(=O)c1ccc(-c2ccc(Cl)cc2)o1` [Compound 3], the melting point was in the range of 149 to 150 °C. Also, in data set [1], the Ki is < 3.5 µM and 2 µM; the Inhibition type entry is reported as “competitive EcGUS inhibitors”. Moreover, the inhibition at 10 µM in data set [2] (setting [3]) is 80.2 ± 1.8%. The IC50 in data set [2] (setting [4]) amounted to 4.7 ± 0.6 µM.
Turning to `N#C/N=C1\SCCN1C(=O)c1ccc(-c2ccccc2F)o1` [Compound 4], the melting point fell in the range of 137 to 138 °C. Further, in data set [2] (setting [3]), the inhibition at 10 µM is 61.6 ± 0.6%. Half-maximal inhibition in data set [2] (setting [4]) (IC50) required 11.9 ± 1.5 µM.
For `N#C/N=C1\SCCN1C(=O)c1ccc(-c2ccc(F)cc2)o1` [Compound 5] the same measures were 129 to 130 °C, 66.5 ± 1.2% and 7.3 ± 0.7 µM.
For `N#C/N=C1\SCCN1C(=O)c1ccc(-c2ccc(F)cc2F)o1` [Compound 6] the same measures were 140 to 141 °C, 43.9 ± 0.7% and 23.1 ± 1.5 µM.
For `N#C/N=C1\SCCN1C(=O)c1ccc(-c2c(F)cccc2F)o1` [Compound 7] the same measures were 136 to 137 °C, 64.1 ± 1.2% and 9.3 ± 1.1 µM.
`N#C/N=C1\SCCN1C(=O)c1ccc(-c2ccccc2[N+](=O)[O-])o1` [Compound 8] gave a melting point of 135 to 136 °C. In addition, in data set [2] (setting [4]), the IC50 was less than 10 µM. In data set [2] (setting [5]), the inhibition at 10 µM came to 31.4 ± 1.8%.
For the compound `N#C/N=C1\SCCN1C(=O)c1ccc(-c2ccc([N+](=O)[O-])cc2)o1` [Compound 9], the melting point was greater than 290 °C. Moreover, in data set [2] (setting [3]), the inhibition at 10 µM came to 40.3 ± 3.2%. Also, in data set [2] (setting [4]), the IC50 worked out at 22.2 ± 2.5 µM.
In the same order, the values of `N#C/N=C1\SCCN1C(=O)c1ccc(-c2ccc(Br)cc2)o1` [Compound 10] are 169 to 170 °C, 68.7 ± 1.8% and 10.8 ± 0.2 µM.
In the same order, the values of `Cc1ccc(-c2ccc(C(=O)N3CCS/C3=N\C#N)o2)cc1` [Compound 11] are 151 to 152 °C, 33.5 ± 2.5% and 22.3 ± 2.6 µM.
For `COc1ccc(-c2ccc(C(=O)N3CCS/C3=N\C#N)o2)cc1` [Compound 12] the same measures were 151 to 152 °C, 49.6 ± 0.6% and 18.5 ± 2.1 µM.
For the compound `N#C/N=C1\SCCN1C(=O)c1ccc(-c2ccccc2)o1` [Compound 13], the melting point was 143 to 144 °C. In data set [2] (setting [3]), the inhibition at 10 µM amounted to 61.8 ± 1.3%. The same compound displayed an IC50 in data set [2] (setting [4]) of 10.7 ± 0.5 µM.
With `O=C(O)[C@@H](O)[C@H]1OC(=O)[C@H](O)[C@H]1O` [D-Saccharic acid 1,4-lactone, D-saccharic acid-1,4-lactone, reference compound], in data set [1], the Ki was found to be 30.9 ± 2.2 µM and the Inhibition type entry is reported as “mixed inhibitors”. Further, the IC50 in data set [2] (setting [4]) amounted to 67.3 ± 0.6 µM. Besides, the inhibition at 10 µM in data set [2] (setting [5]) turned out to be 11.6 ± 0.6%.
`O=c1cc(-c2ccc(O)cc2)oc2cc(O)c(O)c(O)c12` [Scutellarein]: the “Inhibition type against EcGUS” value in the data set with EcGUS is recorded as “potent competitive inhibitors”.
In the case of `Clc1ccc2c(c1)C(N1CCNCC1)=Nc1ccccc1O2` [amoxapine], in the data set with EcGUS, the “Inhibition type against EcGUS” value was “uncompetitive inhibition”.
For the compound `CCOC(=O)/C=C/c1ccc(O)c(O)c1` [caffeic acid ethyl ester], the “Inhibition type against EcGUS” value in the data set with EcGUS is listed as “potent competitive inhibitors”.
As for `CC(C)=CCc1c(-c2ccc(O)cc2O)oc2c([C@H]3C=C(C)C[C@@H](c4ccc(O)cc4O)[C@@H]3C(=O)c3ccc(O)cc3O)c(O)cc(O)c2c1=O` [kuwanon G], in the data set with EcGUS, the “Inhibition type against EcGUS” value was “mixed-type inhibition”.
With `CC(C)=CC[C@]12Oc3cc(O)c([C@H]4C=C(C)C[C@H](c5ccc(O)cc5O)[C@H]4C(=O)c4ccc(O)cc4O)c(O)c3C(=O)[C@@]1(O)Oc1cc(O)ccc12` [sanggenon C], in the data set with EcGUS, the “Inhibition type against EcGUS” value was “mixed-type inhibition”.
